The source of these data is patent publication US11293045B2, “Method for electrochemical detection of mycobacteria” (UNIVERSITÉ DE BOURGOGNE, priority 2017, dated 2022).

Structures are written as SMILES.

This data set in a line: Linear voltammetry of substrate and product solutions on screen-printed carbon sensors. Format: physicochemical. The settings on record: linear voltammetry v=50 mV·s^−1; 5×10^−4 M in PBS (pH 7.5)—0.2% DMSO; vs. Ag/AgCl. The method, then:
FIG. 2 represents the linear voltammograms (v=50 mV·s^−1) of a solution of substrate (p-AP-OG; S) and of product (p-AP-G; dashed curve; P) at 5×10^−4 M in PBS (pH 7.5)—0.2% DMSO.
The electrochemical measurements were carried out by linear voltammetry (v=50 mV·s^−1) with a 910 PSTAT mini potentiostat (Metrohm, France) powered through the USB connection of the computer and controlled by the PSTAT software (version 1.0). To do this, drops of solution of 30-50 μl were deposited on the surface of single-use screen-printed carbon sensors supplied by Dropsens (DRP-110) and connected to the potentiostat via the connector (DRP-DSC). The amperometric detection of the product generated during the reaction catalyzed by Ag85 was always carried out after a step of filtration of the reaction mixture with a filtration device (Microcon 10 kDa, Millipore). All the potentials are measured relative to the Ag/AgCl reference electrode.

`CCCCCCCC(=O)OC[C@H]1O[C@@H](Oc2ccc(N)cc2)[C@H](O)[C@@H](O)[C@@H]1O` [p-AP-OG, p-aminophenyl-6-O-octanoyl-β-D-glucopyranoside]: the oxidation peak potential result is on record as “~+0.2 V”. For `Nc1ccc(O[C@@H]2O[C@H](CO)[C@@H](O)[C@H](O)[C@H]2O)cc1` [p-AP-G, p-aminophenyl-β-D-glucopyranoside] the value was “~+0.4 V”.
